Patent US9475824B2, “Fused pyrimidines as inhibitors of p97 complex” (Cleave Biosciences, Inc., priority 2012, dated 2016)

What was measured:
in vitro = conditions: human, Caco-2, pH 7.4
p97 = p97 (Homo sapiens, UniProt P55072); assay: P97 ATPase biochemical assay (ADP Glo); conditions: 20 nM p97, 20 μM ATP, 37° C. 15 minutes
Description: The ATPase assay is performed according the following protocol: Purified enzyme (20 nM p97), substrate (20 μM ATP) and a dose titration of compounds are mixed in buffer (50 mM TRIS pH 7.5, 20 mM MgCl2, 0.02% TX-100, 1 mM DTT, 0.2% (v/v) glycerol) and incubated at 37° C. for 15 minutes. The reaction is terminated and the level of product generated is measured using the ADP Glo Assay Kit (Promega, Madison Wis.). Plotting product generated versus compound concentration and using a four-parameter fit model generates an IC50 value for each compounds.
The p97 assay is an initial screening assay used to determine inhibitory activity of the fused pyrimidine compounds of the invention against the p97 complex. As discussed above, inhibition of activity of the p97 proteosome complex can enable apoptosis and cause elimination of neoplastic cells (cancer cells). The method follows that of Christianson in Nat.
Assay Buffer is a mixture of 50 mM TRIS pH 7.5, 20 mM MgCl2, 0.02% TX-100, 1 mM DTT and 0.2% (v/v) Glycerol. […] The identification kit is an ADP glo kit (Promega): stop buffer, detection reagent.
0.5 μL compound serial diluted in DMSO (Final Conc. 10%)
2 μL ATP (Final Conc.=20 uM, diluted in assay buffer)
2.5 μL p97 (Final Conc.=20 nM, diluted in assay buffer)
Incubate at 37 degC for 15 min.
Add 5 μL of stop buffer, incubate at RT for 40 min.
Add 10 μL of detection reagent, incubate at RT for 30 min.
Read luminescence on Envision plate reader.
Plot normalized luminescence data against log-transformed concentration values and fit to a sigmoidal curve to determine IC50 values (done in Collaborative Drug Discovery software).

K48-Ub, A549 cells = assay: A549 K48 cell intensity (immunofluorescence, high content imaging); assay type: cell-based; conditions: Homo sapiens, 6 hr compound incubation
Description: Image-analysis is used to generate quantitative data from these assays that can be fit to a four-parameter sigmoid curve to derive IC50 values. Substrates of the ubiquitin-proteasome system, such as p53, are monitored after tumor cell lines are incubated with compounds for several hours. Accumulation of these proteins indicates an inhibition of proteasome-mediated degradation. Accumulation of lysine-48 chain linkage of poly-ubiquitin is also monitored by immunofluorescence as an indicator of ubiquitin-proteasome system inhibition. Both LC3 and SQSTM1 are mediators of autophagy. The localization and amounts of these proteins are monitored by immunofluorescence and report on the activity and inhibition of autophagy in response to p97 inhibition.
Day 1, Cell Plating to Establish Colonies of Cancer Cells • Cell Plating: • Seed cells ˜16 hrs prior to compound treatment • Plate 25 μL of A549 cells in every well of 384-well plate using multidrop. • Two (2) black plates for IF at 2500 cells/well • Let plate sit at room temp for 10-15 minutes prior to putting in incubator to allow cells to stick in middle of plate. • One (1) white plate for viability at 500 cells/well.

Chain of p97 (P55072 whole entry): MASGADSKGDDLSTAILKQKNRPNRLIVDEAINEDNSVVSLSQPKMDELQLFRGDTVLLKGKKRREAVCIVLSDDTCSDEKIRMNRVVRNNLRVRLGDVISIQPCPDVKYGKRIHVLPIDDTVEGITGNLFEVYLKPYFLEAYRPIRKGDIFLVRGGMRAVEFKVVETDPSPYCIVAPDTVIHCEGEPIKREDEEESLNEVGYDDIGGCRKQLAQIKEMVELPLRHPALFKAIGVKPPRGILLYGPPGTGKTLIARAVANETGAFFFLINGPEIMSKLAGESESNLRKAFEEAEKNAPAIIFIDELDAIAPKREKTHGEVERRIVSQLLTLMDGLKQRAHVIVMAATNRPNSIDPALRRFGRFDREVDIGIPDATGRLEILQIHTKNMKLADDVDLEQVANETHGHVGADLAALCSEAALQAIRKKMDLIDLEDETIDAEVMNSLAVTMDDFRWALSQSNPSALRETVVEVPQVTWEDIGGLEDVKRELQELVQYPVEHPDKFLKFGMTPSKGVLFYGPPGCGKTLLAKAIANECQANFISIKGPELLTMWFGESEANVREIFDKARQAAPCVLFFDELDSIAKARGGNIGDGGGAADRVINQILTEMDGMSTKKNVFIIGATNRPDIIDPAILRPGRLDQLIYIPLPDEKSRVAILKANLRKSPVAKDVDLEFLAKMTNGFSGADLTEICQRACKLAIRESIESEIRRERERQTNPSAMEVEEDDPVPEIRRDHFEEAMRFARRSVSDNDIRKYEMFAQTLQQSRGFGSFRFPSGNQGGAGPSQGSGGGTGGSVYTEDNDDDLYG

| IC50 (p97) [µM] | IC50 (K48-Ub, A549 cells) [µM] | SMILES | further results |
| --- | --- | --- | --- |
| – | – | CC(C)NCC(O)COc1cccc2ccccc12 (centres unmarked) [Propranolol] | Papp A→B at 90 min, 100 μM (in vitro): 28.5 ×10⁻⁶ cm/s; Papp B→A at 90 min, 100 μM (in vitro): 20.9 ×10⁻⁶ cm/s; Peff A B, Range (Caco-2 cell monolayer; pH 7.4 Caco-2, A to B): 18.50-36.80 ×E−6 cm/sec; Peff B A, Range (Caco-2 cell monolayer; pH 7.4 Caco-2, B to A): 16.30-31.40 ×E−6 cm/sec |
| < 0.03 | < 10 | NCc1cc2c(C(N)=O)cccc2n1-c1nc2c(c(NCc3ccccc3)n1)CCCC2 [compound 101, 2-(aminomethyl)-1-[4-(benzylamino)-5,6,7,8-tetrahydroquinazolin-2-yl]-1H-indole-4-carboxamide] | – |
| < 1 | < 10 | Cc1cc2c(C(=O)NCCN)cccc2n1-c1nc2c(c(NCc3ccccc3)n1)COCC2 [compound 105, N-(2-aminoethyl)-1-[4-(benzylamino)-5H,7H,8H-pyrano[4,3-d]pyrimidin-2-yl]-2-methyl-1H-indole-4-carboxamide] | – |
| < 0.3 | < 10 | COc1nc2c(C#N)cccc2n1-c1nc2c(c(NCc3ccccc3)n1)COCC2 [compound 106, 1-[4-(benzylamino)-5H,7H,8H-pyrano[4,3-d]pyrimidin-2-yl]-2-methoxy-1H-1,3-benzodiazole-4-carbonitrile] | – |
| < 0.03 | < 10 | Cc1cc2c(C(=O)O)cccc2n1-c1nc2c(c(NCc3ccccc3)n1)COCC2 [compound 107, 1-[4-(benzylamino)-5H,7H,8H-pyrano[4,3-d]pyrimidin-2-yl]-2-methyl-1H-indole-4-carboxylic acid] | – |
| < 0.03 | < 10 | Cc1cc2c(C(=O)O)cccc2n1-c1nc2c(c(NCc3ccccc3)n1)CCCC2 [compound 108, 1-[4-(benzylamino)-5,6,7,8-tetrahydroquinazolin-2-yl]-2-methyl-1H-indole-4-carboxylic acid] | – |
| < 0.1 | < 10 | Cc1cc2c(S(N)(=O)=O)cccc2n1-c1nc2c(c(NCc3ccccc3)n1)CCCC2 [compound 110, 1-[4-(benzylamino)-5,6,7,8-tetrahydroquinazolin-2-yl]-2-methyl-1H-indole-4-sulfonamide] | – |
| < 0.1 | < 10 | Cc1cc2c(S(C)(=O)=O)cccc2n1-c1nc2c(c(NCc3ccccc3)n1)CCCC2 [compound 111, N-benzyl-2-(4-methanesulfonyl-2-methyl-1H-indol-1-yl)-5,6,7,8-tetrahydroquinazolin-4-amine] | – |
| < 0.1 | < 10 | CCc1cc2c(C(N)=O)cccc2n1-c1nc2c(c(NCc3ccccc3)n1)CCCC2 [compound 112, 1-[4-(benzylamino)-5,6,7,8-tetrahydroquinazolin-2-yl]-2-ethyl-1H-indole-4-carboxamide] | – |
| < 0.3 | < 10 | CCc1cc2c(C(N)=O)cccc2n1-c1nc2c(c(NCc3ccccc3)n1)COCC2 [compound 113, 1-[4-(benzylamino)-5H,7H,8H-pyrano[4,3-d]pyrimidin-2-yl]-2-ethyl-1H-indole-4-carboxamide] | – |
| < 0.03 | < 10 | COc1nc2c(C(N)=O)cccc2n1-c1nc2c(c(NCc3ccccc3)n1)CCCC2 [compound 114, 1-[4-(benzylamino)-5,6,7,8-tetrahydroquinazolin-2-yl]-2-methoxy-1H-1,3-benzodiazole-4-carboxamide] | – |
| < 0.3 | < 10 | Cc1cc2c(S(C)(=O)=O)cccc2n1-c1nc2c(c(NCc3ccccc3)n1)COCC2 [compound 118, N-benzyl-2-(4-methanesulfonyl-2-methyl-1H-indol-1-yl)-5H,7H,8H-pyrano[4,3-d]pyrimidin-4-amine] | – |
| < 0.1 | < 10 | Cc1cc2c(C(N)=O)cccc2n1-c1nc2c(c(NCc3ccc(F)cc3)n1)COCC2 [compound 122, 1-(4-{[(4-fluorophenyl)methyl]amino}-5H,7H,8H-pyrano[4,3-d]pyrimidin-2-yl)-2-methyl-1H-indole-4-carboxamide] | – |
| < 0.1 | < 10 | Cc1cc2c(C(N)=O)cccc2n1-c1nc2c(c(NCc3ccccc3F)n1)COCC2 [compound 123, 1-(4-{[(2-fluorophenyl)methyl]amino}-5H,7H,8H-pyrano[4,3-d]pyrimidin-2-yl)-2-methyl-1H-indole-4-carboxamide] | – |
| < 0.1 | < 10 | Cc1cc2c(CN)cccc2n1-c1nc2c(c(NCc3ccccc3)n1)CCCC2 [compound 124, 2-[4-(aminomethyl)-2-methyl-1H-indol-1-yl]-N-benzyl-5,6,7,8-tetrahydroquinazolin-4-amine] | – |
| < 0.1 | < 10 | CC(C)c1cc2c(C(N)=O)cccc2n1-c1nc2c(c(NCc3ccccc3)n1)CCCC2 [compound 128, 1-[4-(benzylamino)-5,6,7,8-tetrahydroquinazolin-2-yl]-2-(propan-2-yl)-1H-indole-4-carboxamide] | – |
| < 0.03 | < 10 | NC(=O)c1cccc2c1cc(C1CC1)n2-c1nc2c(c(NCc3ccccc3)n1)CCCC2 [compound 130, 1-[4-(benzylamino)-5,6,7,8-tetrahydroquinazolin-2-yl]-2-cyclopropyl-1H-indole-4-carboxamide] | – |
| < 0.03 | < 10 | CNC(=O)c1cccc2c1cc(C)n2-c1nc2c(c(NCc3ccccc3)n1)CCCC2 [compound 132, 1-[4-(benzylamino)-5,6,7,8-tetrahydroquinazolin-2-yl]-N-methyl-2-methyl-1H-indole-4-carboxamide] | – |
| < 0.03 | < 10 | CCNC(=O)c1cccc2c1cc(C)n2-c1nc2c(c(NCc3ccccc3)n1)CCCC2 [compound 134, 1-[4-(benzylamino)-5,6,7,8-tetrahydroquinazolin-2-yl]-N-ethyl-2-methyl-1H-indole-4-carboxamide] | – |
| < 0.03 | < 10 | Cc1cc2c(C(N)=O)cccc2n1-c1nc2c(c(NCc3cccc(F)c3)n1)COCC2 [compound 136, 1-(4-{[(3-fluorophenyl)methyl]amino}-5H,7H,8H-pyrano[4,3-d]pyrimidin-2-yl)-2-methyl-1H-indole-4-carboxamide] | – |
| < 0.03 | < 10 | COCCOc1cc2c(C#N)cccc2n1-c1nc2c(c(NCc3ccccc3)n1)CCCC2 [compound 137, 1-[4-(benzylamino)-5,6,7,8-tetrahydroquinazolin-2-yl]-2-(2-methoxyethoxy)-1H-indole-4-carbonitrile] | – |
